The values that follow come from patent publication US8722849B2, “Polypeptides” (Novo Nordisk A/S, priority 2011, dated 2014).

By solubility is commonly meant the dissolved amount per volume that the medium holds.

This data set in a line: Assay (IV) determination of solubility. Type of data set: physicochemical. As to the method: ASSAY (IV)—Determination of Solubility
The polypeptide was dissolved in water at ˜500 nmol/ml and mixed 1:1 with a series of buffers (100 mM glycylglycine pH 3.0, 100 mM glycylglycine pH 4.0, 100 mM glycylglycine pH 5.0, 100 mM bistrispropane pH 6.0, 100 mM bistrispropane pH 6.5, 100 mM bistrispropane pH 7.0, 100 mM bistrispropane pH 7.5, 100 mM bistrispropane pH 8.0). After 18 hours at room temperature the samples were centrifuged and the polypeptide concentration determined by HPLC.

Where [1] appears, read: pH 3, pH 3.0, read-out: Solubility pH 3.0.
[2] abbreviates: pH 4, pH 4.0, 18 hours at room temperature, Table 2, read-out: Solubility pH 4.0.
Where [3] appears, read: pH 4, pH 4.0, read-out: Solubility pH 4.0.
Setting [4] is: pH 5, pH 5.0, read-out: Solubility pH 5.0.
Setting [5] is: pH 6, pH 6.0, read-out: Solubility pH 6.0.
Where [6] appears, read: pH 6.5, pH 6.5, read-out: Solubility pH 6.5.
The mark [7] stands for this setting: pH 7, pH 7.0, read-out: Solubility pH 7.0.
[8] abbreviates: pH 7.5, pH 7.5, read-out: Solubility pH 7.5.
Where [9] appears, read: pH 8, pH 8.0, read-out: Solubility pH 8.0.

≈ marks a conversion by molar mass, not a printed value. Like-named read-outs stand apart in the source and are kept apart here. Starred links: 1 amine or outer side, 2 acyl side, 3 side chain; linkers in the order of their positions; H or OH if unused. Positions of bridges follow the written chain, without caps; N, C: chain ends. Residues, ends and D or L forms follow the SMILES beside them. Groups on a side chain read outwards from the residue. *: point of attachment. C20 diacid = O=C(O)CCCCCCCCCCCCCCCCCCC(=O)*; γGlu = O=C(O)[C@H](CCC(=O)[*:2])N[*:1]; AEEA = NCCOCCOCC(=O)O

With `CC[C@H](C)[C@H](NC(=O)[C@@H]1CCCN1C(=O)CNC(=O)[C@H](Cc1ccccc1)NC(=O)[C@H](CC(N)=O)NC(=O)[C@H](CO)NC(=O)[C@H](CO)NC(=O)[C@H](CO)NC(=O)[C@H](Cc1c[nH]cn1)NC(=O)[C@H](Cc1c[nH]cn1)NC(=O)[C@H](CC(C)C)NC(=O)[C@H](Cc1ccccc1)NC(=O)[C@H](CCC(=O)O)NC(=O)[C@H](C)NC(=O)[C@H](CC(C)C)NC(=O)[C@H](CCCNC(=N)N)NC(=O)[C@H](CCC(N)=O)NC(=O)[C@@H](NC(=O)[C@H](C)NC(=O)[C@@H]1CSSC[C@H](NC(=O)[C@H](Cc2c[nH]cn2)NC(=O)COCCOCCNC(=O)COCCOCCNC(=O)CC[C@H](NC(=O)CCCCCCCCCCCCCCCCCCC(=O)O)C(=O)O)C(=O)N[C@@H](CC(N)=O)C(=O)N[C@@H]([C@@H](C)O)C(=O)N[C@@H](C)C(=O)N[C@@H]([C@@H](C)O)C(=O)N1)[C@@H](C)O)C(=O)N[C@@H](CC(C)C)C(=O)N1CCC[C@H]1C(=O)N1CCC[C@H]1C(=O)N[C@H](C(=O)N[C@@H](CC(N)=O)C(=O)N[C@H](C(=O)NCC(=O)N[C@@H](CO)C(=O)N[C@@H](Cc1c[nH]cn1)C(=O)N[C@H](C(=O)N[C@@H](Cc1ccc(O)cc1)C(N)=O)[C@@H](C)O)C(C)C)[C@@H](C)O` [Example 119, N-alpha-[2-(2-{2-[2-(2-{2-[(S)-4-Carboxy-4-(19-carboxyheptadecanoylamino)butyrylamino]ethoxy}ethoxy)acetylamino]ethoxy}ethoxy)acetyl]-[His1,Glu14,His17,Ser21,His35]-pramlintide] ({C20 diacid-γGlu-AEEA-AEEA}-HCNTATCATQRLAEFLHHSSSNFGPILPPTNVGSHTY-NH2; disulfide 2-7), the solubility under setting [1] was above 200 µM; the solubility under setting [2] was above 200 µM; the solubility under setting [3] is above 200 µM; the solubility under setting [4] is above 200 µM; the solubility under setting [5] came out at 32 µM (≈ 152 µg/mL); the solubility under setting [6] came out at 3 µM (≈ 14.3 µg/mL). In addition, the solubility reads like this: under setting [7], 13 µM (≈ 61.8 µg/mL); under setting [8], 114 µM (≈ 542 µg/mL); under setting [9], above 200 µM.
In the case of `CC[C@H](C)[C@H](NC(=O)[C@@H]1CCCN1C(=O)CNC(=O)[C@H](Cc1ccccc1)NC(=O)[C@H](CC(N)=O)NC(=O)[C@H](CCCCNC(=O)COCCOCCNC(=O)COCCOCCNC(=O)CC[C@H](NC(=O)CCCCCCCCCCCCCCCCCCC(=O)O)C(=O)O)NC(=O)[C@H](CO)NC(=O)[C@H](CO)NC(=O)[C@H](Cc1c[nH]cn1)NC(=O)[C@@H](NC(=O)[C@H](CC(C)C)NC(=O)[C@H](Cc1ccccc1)NC(=O)[C@H](CCC(=O)O)NC(=O)[C@H](C)NC(=O)[C@H](CC(C)C)NC(=O)[C@H](CCCNC(=N)N)NC(=O)[C@H](CCC(N)=O)NC(=O)[C@@H](NC(=O)[C@H](C)NC(=O)[C@@H]1CSSC[C@H](NC(=O)[C@@H](N)CCCCN)C(=O)N[C@@H](CC(N)=O)C(=O)N[C@@H]([C@@H](C)O)C(=O)N[C@@H](C)C(=O)N[C@@H]([C@@H](C)O)C(=O)N1)[C@@H](C)O)C(C)C)C(=O)N[C@@H](CC(C)C)C(=O)N1CCC[C@H]1C(=O)N[C@@H](CO)C(=O)N[C@H](C(=O)N[C@@H](CC(N)=O)C(=O)N[C@H](C(=O)NCC(=O)N[C@@H](CO)C(=O)N[C@@H](Cc1c[nH]cn1)C(=O)N[C@H](C(=O)N[C@@H](Cc1ccc(O)cc1)C(N)=O)[C@@H](C)O)C(C)C)[C@@H](C)O` [Example 127, N-epsilon21-[2-(2-{2-[2-(2-{2-[(S)-4-Carboxy-4-(19-carboxyheptadecanoylamino)butyrylamino]ethoxy}ethoxy)acetylamino]ethoxy}ethoxy)acetyl]-[Glu14,Lys21,Ser29,His35]-pramlintide] (H-KCNTATCATQRLAEFLVHSSK([AEEA-AEEA-γGlu-C20 diacid])NFGPILPSTNVGSHTY-NH2; disulfide 2-7), the solubility by setting is: under setting [1], above 200 µM; under setting [2], above 200 µM; under setting [3], above 200 µM; under setting [4], above 200 µM; under setting [5], above 200 µM; under setting [6], above 200 µM. Moreover, the solubility reads like this: (pH 7, pH 7.0, 18 hours at room temperature, Table 3, read-out: Solubility pH 7.0) above 200 µM; under setting [7], above 200 µM; under setting [8], above 200 µM; under setting [9], above 200 µM.
For the compound `CC[C@H](C)[C@H](NC(=O)[C@@H]1CCCN1C(=O)CNC(=O)[C@H](Cc1ccccc1)NC(=O)[C@H](CC(N)=O)NC(=O)[C@H](CCCCNC(=O)COCCOCCNC(=O)COCCOCCNC(=O)CC[C@H](NC(=O)CCCCCCCCCCCCCCCCCCC(=O)O)C(=O)O)NC(=O)[C@H](CO)NC(=O)[C@H](CO)NC(=O)[C@H](Cc1c[nH]cn1)NC(=O)[C@H](Cc1c[nH]cn1)NC(=O)[C@H](CC(C)C)NC(=O)[C@H](Cc1ccccc1)NC(=O)[C@H](CCC(=O)O)NC(=O)[C@H](C)NC(=O)[C@H](CC(C)C)NC(=O)[C@H](CCCNC(=N)N)NC(=O)[C@H](CCC(N)=O)NC(=O)[C@@H](NC(=O)[C@H](C)NC(=O)[C@@H]1CSSC[C@H](NC(=O)[C@@H](N)CCCCN)C(=O)N[C@@H](CC(N)=O)C(=O)N[C@@H]([C@@H](C)O)C(=O)N[C@@H](C)C(=O)N[C@@H]([C@@H](C)O)C(=O)N1)[C@@H](C)O)C(=O)N[C@@H](CC(C)C)C(=O)N[C@@H](CO)C(=O)N[C@@H](CO)C(=O)N[C@H](C(=O)N[C@@H](CC(N)=O)C(=O)N[C@H](C(=O)NCC(=O)N[C@@H](CO)C(=O)N[C@@H](Cc1c[nH]cn1)C(=O)N[C@H](C(=O)N[C@@H](Cc1ccc(O)cc1)C(N)=O)[C@@H](C)O)C(C)C)[C@@H](C)O` [Example 148, N-epsilon21-[2-(2-{2-[2-(2-{2-[(S)-4-Carboxy-4-(19-carboxyheptadecanoylamino)butyrylamino]ethoxy}ethoxy)acetylamino]ethoxy}ethoxy)acetyl]-[Glu14,His17,Lys21,Ser28,Ser29,His35]-pramlintide] (H-KCNTATCATQRLAEFLHHSSK([AEEA-AEEA-γGlu-C20 diacid])NFGPILSSTNVGSHTY-NH2; disulfide 2-7), the solubility reads like this: under setting [1], above 200 µM; under setting [2], above 200 µM; under setting [3], above 200 µM; under setting [4], above 200 µM; under setting [5], 51 µM (≈ 243 µg/mL); under setting [6], 19 µM (≈ 90.5 µg/mL). Further, the solubility under setting [7] came out at 1 µM (≈ 4.76 µg/mL) and the solubility under setting [8] is 1 µM (≈ 4.76 µg/mL).
